Source: PubChem BioAssay (NCI)
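Protocol summary: plate cells (96-well), add compound at 5 concentrations, incubate 48 h, interpolate endpoints linearly. At the GI50, growth is halved. TGI: concentration producing complete growth inhibition.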

How the values were obtained:
Test in all cases: inhibition of tumour cell growth, NCI panel, 48 h; in the data active = GI50 below about 0.43 µM; inactive = the rest
[1] = system: EKVX NSCLC
[2] = system: A498 renal
[3] = system: UO-31 renal
[4] = system: LXFL 529 NSCLC
[5] = system: OVCAR-8 ovarian
[6] = system: DLD-1 colon
[7] = system: K-562 leukemia
[8] = system: SW-620 colon
[9] = system: KM12 colon
[10] = system: MOLT-4 leukemia
[11] = system: M14 melanoma
[12] = system: HOP-92 NSCLC
[13] = system: RPMI-8226 leukemia
[14] = system: LOX IMVI melanoma
[15] = system: HT29 colon
[16] = system: MALME-3M melanoma
[17] = system: NCI-H226 lung
[18] = system: UACC-62 melanoma
[19] = system: OVCAR-3 ovarian
[20] = system: SK-MEL-28 melanoma
[21] = system: U251 CNS
[22] = system: 786-0 renal
[23] = system: OVCAR-4 ovarian
[24] = system: SNB-19 CNS
[25] = system: A549 NSCLC
[26] = system: OVCAR-5 ovarian
[27] = system: M19-MEL melanoma
[28] = system: SN12C renal
[29] = system: NCI-H522 lung
[30] = system: NCI-H23 lung
[31] = system: IGROV1 ovarian
[32] = system: UACC-257 melanoma
[33] = system: DMS 114 small cell lung
[34] = system: HCT-15 colon
[35] = system: ACHN renal
[36] = system: SK-MEL-2 melanoma
[37] = system: KM20L2 colon
[38] = system: DMS 273 small cell lung
[39] = system: CAKI-1 renal
[40] = system: HCC-2998 colon
[41] = system: HOP-62 NSCLC
[42] = system: CCRF-CEM leukemia
[43] = system: SK-OV-3 ovarian
[44] = system: TK-10 renal
[45] = system: SNB-75 CNS
[46] = system: NCI-H460 lung
[47] = system: SF-539 CNS
[48] = system: SF-295 CNS
[49] = system: COLO 205 colon
[50] = system: SK-MEL-5 melanoma
[51] = system: HL-60(TB) leukemia
[52] = system: SF-268 CNS
[53] = system: HCT-116 colon
[54] = system: SR leukemia
[55] = system: RXF 393 renal
[56] = system: SNB-78 CNS

[Cl-].[Nd+3].[O-]/N=C(\c1ccccc1)c1ccccn1.[O-]/N=C(\c1ccccc1)c1ccccn1.[O-]/N=C(\c1ccccc1)c1ccccn1
82.7 µM: TGI [30]
99.3 µM: TGI [32]
inactive: GI50 [1] 31.1 µM | GI50 [2] 24.5 µM | GI50 [3] 19.8 µM | GI50 [4] 40.4 µM | GI50 [5] 34.1 µM | GI50 [6] 39.6 µM | GI50 [7] 34.4 µM | GI50 [8] 41.1 µM | GI50 [9] 38.8 µM | GI50 [10] 23.8 µM | GI50 [11] 23 µM | GI50 [12] 25 µM | GI50 [13] 39.2 µM | GI50 [14] 22.6 µM | GI50 [15] 54.2 µM | GI50 [16] 30 µM | GI50 [17] 13.3 µM | GI50 [18] 28.7 µM | GI50 [19] 17.5 µM | GI50 [20] 27.3 µM | GI50 [21] 38.9 µM | GI50 [22] 31 µM | GI50 [23] 45.1 µM | GI50 [24] 35.9 µM | GI50 [25] 33.7 µM | GI50 [26] 31.2 µM | GI50 [27] 25 µM | GI50 [28] 37.2 µM | GI50 [29] 23 µM | GI50 [30] 30.3 µM | GI50 [31] 30.6 µM | GI50 [32] 33.6 µM | GI50 [33] 24.6 µM | GI50 [34] 31.7 µM | GI50 [35] 37.8 µM | GI50 [36] 28 µM | GI50 [37] 39.1 µM | GI50 [38] 26.9 µM | GI50 [39] 30.6 µM | GI50 [40] 36.3 µM | GI50 [41] 24.9 µM | GI50 [42] 16.4 µM | GI50 [43] 37.1 µM | GI50 [44] 37.5 µM | GI50 [45] 3.78 µM | GI50 [46] 29.4 µM | GI50 [47] 23.8 µM | GI50 [48] 22.3 µM | GI50 [49] 31.2 µM | GI50 [50] 22.6 µM | GI50 [51] 16.5 µM | GI50 [52] 24.8 µM | GI50 [53] 37.6 µM
55.4 µM: TGI [50]
45.6 µM: TGI [17]
17.2 µM: TGI [45]
96.9 µM: TGI [16]
45.8 µM: TGI [11]
66.4 µM: TGI [36]
98.3 µM: TGI [12]
69.8 µM: TGI [27]
82.2 µM: TGI [22]
79 µM: TGI [33]
80.1 µM: TGI [29]
> 100 µM: TGI [1] | TGI [2] | TGI [4] | TGI [5] | TGI [6] | TGI [7] | TGI [8] | TGI [9] | TGI [13] | TGI [15] | TGI [18] | TGI [19] | TGI [21] | TGI [23] | TGI [24] | TGI [25] | TGI [26] | TGI [28] | TGI [31] | TGI [34] | TGI [35] | TGI [37] | TGI [39] | TGI [40] | TGI [41] | TGI [43] | TGI [44] | TGI [46] | TGI [48] | TGI [49] | TGI [53]
90.2 µM: TGI [10]
56.7 µM: TGI [3]
85.1 µM: TGI [20] | TGI [52]
62.2 µM: TGI [47]
95.3 µM: TGI [42]
53.6 µM: TGI [51]
97 µM: TGI [38]
58 µM: TGI [14]

O=C(N/N=C/c1cc(Cl)cc(Cl)c1[O-])c1ccccc1O.O=C(N/N=C/c1cc(Cl)cc(Cl)c1[O-])c1ccccc1O.[Cl-].[Fe+3]
33.6 µM: TGI [18]
27.9 µM: TGI [47]
18.9 µM: TGI [53]
37.1 µM: TGI [36]
26 µM: TGI [26]
36.2 µM: TGI [41]
24 µM: TGI [37]
36 µM: TGI [46]
23.7 µM: TGI [55]
29.2 µM: TGI [43]
44.4 µM: TGI [49]
26.6 µM: TGI [23]
> 100 µM: TGI [39] | TGI [44]
31.5 µM: TGI [29]
22.7 µM: TGI [24]
29.9 µM: TGI [8]
25.3 µM: TGI [54]
34.8 µM: TGI [15]
38.5 µM: TGI [35]
inactive: GI50 [1] 29.3 µM | GI50 [9] 12.6 µM | GI50 [12] 1.95 µM | GI50 [25] 10.2 µM | GI50 [30] 7.73 µM | GI50 [36] 17.1 µM | GI50 [37] 10.7 µM | GI50 [47] 10.5 µM | GI50 [49] 19.4 µM | GI50 [53] 5.78 µM
37.9 µM: TGI [9]
18.7 µM: TGI [34]
48.4 µM: TGI [31]
27 µM: TGI [19]
30.9 µM: TGI [14]
31.7 µM: TGI [3]
69.8 µM: TGI [52]
7.18 µM: TGI [12]
23.5 µM: TGI [40]
63.8 µM: TGI [25]
25.9 µM: TGI [5]
25.7 µM: TGI [30]
5.22 µM: TGI [51]
88.3 µM: TGI [1]
20.5 µM: TGI [17]
22.4 µM: TGI [48]
51.2 µM: TGI [32]
60.4 µM: TGI [45]
35.3 µM: TGI [11]

COc1cc2ccc1NC(=O)N1CCN(CC1)C(=O)Nc1ccc(cc1OC)-c1ccc(c(OC)c1)NC(=O)N1CCN(CC1)C(=O)Nc1ccc-2cc1OC
> 100 µM: TGI [2] | TGI [3] | TGI [4] | TGI [7] | TGI [9] | TGI [10] | TGI [11] | TGI [12] | TGI [13] | TGI [15] | TGI [18] | TGI [54] | TGI [19] | TGI [20] | TGI [23] | TGI [24] | TGI [27] | TGI [29] | TGI [30] | TGI [31] | TGI [32] | TGI [33] | TGI [35] | TGI [36] | TGI [56] | TGI [40] | TGI [41] | TGI [55] | TGI [42] | TGI [43] | TGI [45] | TGI [46] | TGI [47] | TGI [48] | TGI [49] | TGI [52] | TGI [53]
